The source of these data is ChEMBL document CHEMBL5214987, “Scaffold hopping via ring opening enables identification of acyclic compounds as new complement Factor D inhibitors” (Bioorg Med Chem, 2022).

The nature of one data set: in vitro. The following applies: rabbit, rabbit erythrocytes.
Data set [1] can be described thus: Half-life in male Sprague-Dawley rat at 2.5 mg/kg, iv. The following applies: in vivo. Type of data set: ADME, organism-based.
The nature of data set [2]: Half-life in male Sprague-Dawley rat at 10 mg/kg, po. Type of data set: ADME, organism-based. The following applies: in vivo.
Data set [3] in a line: Cmax in male Sprague-Dawley rat at 10 mg/kg, po. Type of data set: ADME, organism-based. Details: dose 10 mg/kg, route po. The following applies: in vivo.
Data set [4] in a line: Tmax in male Sprague-Dawley rat at 10 mg/kg, po. In kind it is ADME, organism-based. The following applies: in vivo.
Data set [5] can be described thus: Initial plasma concentration in male Sprague-Dawley rat at 2.5 mg/kg, iv. Type of data set: ADME, organism-based.
Data set [6] can be described thus: AUClast in male Sprague-Dawley rat at 2.5 mg/kg, iv. Type of data set: ADME, organism-based. Details: time 0 - last, dose 2.5 mg/kg, route iv. The following applies: in vivo.
The nature of data set [7]: Clearance in male Sprague-Dawley rat at 2.5 mg/kg, iv. Type of data set: ADME, organism-based. As to conditions: in vivo.
A short description of data set [8]: Volume of distribution at steady state in male Sprague-Dawley rat at 2.5 mg/kg, iv. In kind it is ADME, organism-based. The following applies: in vivo, read-out: Vdss.
Data set [9] in a line: MRTlast at steady state in male Sprague-Dawley rat at 2.5 mg/kg, iv. In kind it is ADME, organism-based. The following applies: in vivo.
Data set [10] is described as follows: AUClast in male Sprague-Dawley rat at 10 mg/kg, po. Type of data set: ADME, organism-based. Details: time 0 - last, dose 10 mg/kg, route po. The following applies: in vivo.
A short description of data set [11]: MRTlast in male Sprague-Dawley rat at 10 mg/kg, po. As to conditions: in vivo. In kind it is ADME, organism-based.
The nature of data set [12]: Oral bioavailability in male Sprague-Dawley rat at 10 mg/kg. As to conditions: in vivo. Type of data set: ADME, organism-based.
Data set [13] is described as follows: Cmax in male Sprague-Dawley rat at 2.5 mg/kg, iv. Type of data set: ADME, organism-based. The arrangement: dose 2.5 mg/kg, route iv. As to conditions: in vivo.
Data set [14] can be described thus: Tmax in male Sprague-Dawley rat at 2.5 mg/kg, iv. Type of data set: ADME, organism-based. The following applies: in vivo.
Data set [15] in a line: AUC (0 to 24 hrs) in male Sprague-Dawley rat at 2.5 mg/kg, iv. The following applies: in vivo. In kind it is ADME, organism-based. Details: time < 24 hr, dose 2.5 mg/kg, route iv.
A short description of data set [16]: AUC (0 to 24 hrs) in male Sprague-Dawley rat at 10 mg/kg, po. Type of data set: ADME, organism-based. Details: time < 24 hr, dose 10 mg/kg, route po. As to conditions: in vivo.

Description for in vitro: Hemolytic activity against rabbit erythrocytes incubated for 30 mins in presence of human serum and measured by hemolysis assay

Usually IC50 stands for the midpoint of a concentration-inhibition curve. A high value points to weaker potency in that assay. As for `CC(C)(C)OC(=O)Nc1ccc2c(c1)c(C(N)=O)nn2CC(=O)N(CC(=O)NCc1cccc(Cl)c1F)C1CC1`, in “in vitro”, inhibition was half-maximal at 34 nM (IC50 at 30 min).
For orientation: half-life means how long it takes for the measured level to halve. By Cmax is commonly meant the peak of the concentration-time curve. The Tmax is the time at which the peak concentration occurs. Usually AUC(0-t) stands for exposure summed from dosing to a finite time, without extrapolation to infinity. The low end stands for low exposure, the high end for high exposure. The clearance is the volume of plasma or blood freed of the substance per unit of time. The MRT last is the average time that molecules of a dose stay in the body. For orientation: bioavailability means dose-corrected exposure relative to a reference, in per cent. A higher bioavailability goes with much systemic uptake. For the compound `CN1CCC(N(C)C(=O)Nc2ccc3c(c2)c(C(N)=O)nn3CC(=O)N(CC(=O)NCc2cccc(Cl)c2F)C2CC2)CC1`, the half-life in data set [1] was 24.6 min; in data set [2] it was 69 min. This compound registered a Cmax in [3] of 113 ng/mL. Further, in data set [4], the time to peak (Tmax) worked out at 30 min. Also, in data set [5], the C0 worked out at 9650 ng/mL. Besides, the values for the AUC(0-t) in data set [6] and in data set [10] were 3130 ng·h/mL and 209 ng·h/mL, respectively. The clearance in data set [7] was found to be 13.5 mL/min/kg. Also, the Vd in [8] came out at 0.3 L/kg. Also, the mean residence time MRT last was 21 min in [9] and 119 min in data set [11]. For the same compound, the bioavailability in [12] was 1.7%. The compound further displayed an IC50 at 30 min in “in vitro” of 30 nM.
In turn, `CC(C)(C)NC(=O)Nc1ccc2c(c1)c(C(N)=O)nn2CC(=O)N(CC(=O)NCc1cccc(Cl)c1F)C1CC1` showed a half-inhibitory concentration (IC50) at 30 min in the data set “in vitro” of 73 nM.
In turn, `CCN(CC)CCNC(=O)Nc1ccc2c(c1)c(C(N)=O)nn2CC(=O)N(CC(=O)NCc1cccc(Cl)c1F)C1CC1` gave an IC50 at 30 min in “in vitro” of 110 nM.
Turning to `NC(=O)c1nn(CC(=O)N(CC(=O)NCc2cccc(Cl)c2F)C2CC2)c2ccc(NC(=O)NC3CCCCC3)cc12`, half-maximal inhibition in “in vitro” (IC50 at 30 min) was put at 76 nM.
Consider `NC(=O)c1nn(CC(=O)N(CC(=O)NCc2cccc(Cl)c2F)C2CC2)c2ccc(NC(=O)N3CCN(C4CC4)CC3)cc12`, for which the IC50 at 30 min in the data set “in vitro” worked out at 64 nM.
Consider `COC(=O)c1ccc2c(C(N)=O)nn(CC(=O)N(CC(=O)NCc3cccc(Cl)c3F)C3CC3)c2c1`, for which half-maximal inhibition in “in vitro” (IC50 at 30 min) was put at 220 nM.
For `NC(=O)c1nn(CC(=O)N(CC(=O)NCc2cccc(Cl)c2F)C2CC2)c2ccc(NC(=O)N3CCN(Cc4ccc(F)cc4)CC3)cc12`, half-maximal inhibition in “in vitro” (IC50 at 30 min) was put at 17 nM.
With `NC(=O)c1nn(CC(=O)N(CC(=O)NCc2cccc(Cl)c2F)C2CC2)c2ccc(NC(=O)N3CCCC(F)(F)C3)cc12`, the half-inhibitory concentration (IC50) at 30 min in the data set “in vitro” was 17 nM.
For the compound `NC(=O)c1nn(CC(=O)N2CCC[C@H]2C(=O)NCc2cccc(Cl)c2F)c2ccccc12`, the half-life in [1] is 298 min; in data set [2] it was 221 min. For the same compound, the maximum concentration (Cmax) was 6740 ng/mL in [13] and 69.3 ng/mL in data set [3]. Also, the time to peak (Tmax) in data set [14] came to 4.98 min; in data set [4] it was 30 min. For the same compound, the values for the AUC(0-t) at 24 h in data set [15] and in data set [16] were 3410 ng·h/mL and 257 ng·h/mL, respectively.
